Patent US20140107109A1, “AMINO-DIHYDROTHIAZINE AND AMINO-DIOXIDO DIHYDROTHIAZINE COMPOUNDS AS BETA-SECRETASE ANTAGONISTS AND METHODS OF USE” (Amgen Inc., priority 2012, published 2014)

How the values were obtained:
Cathepsin D (Cat D) = target: T1, Cathepsin D (Cat D) (Homo sapiens, UniProt P07339); test: In vitro enzymatic Cathepsin D (Cat D) FRET assay; assay type: biochemical; conditions: read-out: CatD IC50
T1 construct: Recombinant Cat D was expressed in CHO cells; made in house; host or cells: CHO cells
Method: In Vitro Enzymatic Cathepsin D (Cat D) FRET (Fluorescence Resonance Energy Transfer) Assay Recombinant Cat D was expressed in CHO cells. […] The Cat D enzyme (9 nM) is pre-incubated for one hour with inhibitors, typically in about 1 uL of DMSO according to a serial dilution, is added thereto. […] The FRET assay is terminated with by addition of Tris buffer, which raises the pH to neutrality, and the fluorescence is determined. The FRET substrate is a peptide with commercially available fluorophore and quencher, on opposite sides of the BACE cleavage site. The Cat D substrate peptide sequence is based on sequence #1 of Table 1 from Gulnik et al. […] Alternatively, a Cat D assay may also be run according to the procedure described in the article, Characterization of new fluorgenic substrates for the rapid and sensitive assay of cathepsin E and cathepsin D, J. Biochem., 125:1137, 1999. In addition, the cathepsin D and cathepsin E assays are described in PCT publication WO2011069934. This WIPO publication describes BACE inhibitor compounds having an amide linker connecting two aromatic groups with extremely poor cathepsin D and/or cathepsin E inhibitory activity (see Table 2). Where available, the in-vitro Cat D FRET assay data for each of the Examples, conducted by the first procedure, is provided.

[1] = system: Aβ40 in conditioned medium of cells stably expressing Amyloid Precursor Protein (APP); test: In vitro BACE cell-based assay (HEK cell assay), Aβ40 sandwich ELISA; conditions: Homo sapiens, HEK293; Aβ40, 24 h incubation
Method: In Vitro BACE Cell-Based Assay
The cell-based assay measures inhibition or reduction of Aβ40 in conditioned medium of test compound treated cells expressing amyloid precursor protein.
Cells stably expressing Amyloid Precursor Protein (APP) were plated at a density of 40K cells/well in 96 well plates (Costar). The cells were cultivated for 24 hours at 37C. and 5% CO2 in DMEM supplemented with 10% FBS. The test compounds were then added to cells in 10-point dose response concentrations with the starting concentration being either 100 μM or 10 μM. The compounds were diluted from stock solutions in DMSO and the final DMSO concentration of the test compounds on cells was 0.1%. After 24 h of incubation with the test compounds the supernatant conditioned media was collected and the Aβ 40 levels were determined using a sandwich ELISA. The IC50 of the compound was calculated from the percent of control or percent inhibition of Aβ 40 as a function of the concentration of the test compound.
The sandwich ELISA to detect Aβ 40 was performed in 96 well microtiter plates, which were pre-treated with goat anti-rabbit IgG (Pierce). The capture and detecting antibody pair that were used to detect Aβ 40 from cell supernatants were affinity purified pAb40 (Biosource) and biotinylated 6E10 (Signet Labs Inc.), respectively. The optimal concentration for the pAb40 antibody was 3 μg/ml in Superblock/TBS (Pierce) that was supplemented with 0.05% Tween 20 (Sigma). Optimal concentration for the detection antibody 6E10-biotinylated was 0.5 μg/ml in Superblock/TBS (Pierce) that had been supplemented with 2% normal goat serum and 2% normal mouse serum.
Cellular supernatants were incubated with the capture antibody for 3 h at 4° C., followed by 3 wash steps in TBS-tween (0.05%). The detecting antibody incubation was for 2 h at 4° C., again followed by the wash steps as described previously. The final readout of the ELISA is Time-Resolved Fluorescence (counts per minute) using Delfia reagents Streptavidin-Europium and Enhancement solutions (Perkin Elmer) and the Victor 2 multilabel counter (Perkin Elmer).

[2] = target: Beta Secretase enzyme (BACE1) (Homo sapiens, UniProt P56817); test: In vitro enzymatic BACE FRET assay; assay type: biochemical; conditions: read-out: BACE1 FRET assay IC50
Method: In Vitro Enzymatic BACE FRET (Fluorescence Resonance Energy Transfer) Assay (Enzyme Assay Data in the Example Tables I and II)
The assay buffer used in this screen is 0.05 M acetate, pH 4.2, 10% DMSO final, 100 uM genapol (which is a nonionic detergent, below its Critical Micelle Concentration). […] This assay is effectively started by the addition of FRET substrate (50 nM) and the combination is incubated for one hour. The FRET assay is terminated with by addition of Tris buffer, which raises the pH to neutrality, and the fluorescence is determined. The FRET substrate is a peptide with commercially available fluorophore and quencher, on opposite sides of the BACE cleavage site. Proteolytic cleavage of the FRET substrate releases quenching of fluorescence (excitation […] and […]).

Sequence of Beta Secretase enzyme (BACE1) (P56817 46-501): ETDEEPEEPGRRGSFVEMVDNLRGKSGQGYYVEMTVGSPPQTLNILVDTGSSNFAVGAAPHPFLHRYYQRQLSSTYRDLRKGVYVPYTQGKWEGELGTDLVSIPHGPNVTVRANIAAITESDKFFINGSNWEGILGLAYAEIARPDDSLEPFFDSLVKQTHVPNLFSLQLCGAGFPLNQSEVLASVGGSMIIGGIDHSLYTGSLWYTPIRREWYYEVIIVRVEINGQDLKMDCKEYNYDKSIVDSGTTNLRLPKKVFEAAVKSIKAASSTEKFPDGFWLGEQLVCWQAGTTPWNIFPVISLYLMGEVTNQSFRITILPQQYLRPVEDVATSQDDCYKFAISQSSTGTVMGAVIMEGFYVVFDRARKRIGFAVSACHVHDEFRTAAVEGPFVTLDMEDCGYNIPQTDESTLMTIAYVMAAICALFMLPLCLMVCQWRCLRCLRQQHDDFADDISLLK
T1 sequence (P07339 65-412, species assumed): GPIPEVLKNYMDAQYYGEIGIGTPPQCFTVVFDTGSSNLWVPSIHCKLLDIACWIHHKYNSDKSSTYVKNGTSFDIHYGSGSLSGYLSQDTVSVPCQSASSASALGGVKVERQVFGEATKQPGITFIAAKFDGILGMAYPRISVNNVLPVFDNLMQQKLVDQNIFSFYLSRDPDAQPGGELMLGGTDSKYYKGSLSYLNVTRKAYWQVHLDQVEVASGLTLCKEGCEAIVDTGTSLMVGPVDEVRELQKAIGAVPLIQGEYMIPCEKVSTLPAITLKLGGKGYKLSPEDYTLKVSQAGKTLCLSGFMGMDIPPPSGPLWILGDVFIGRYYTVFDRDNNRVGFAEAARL

| Structure (SMILES) | IC50 (Cathepsin D (Cat D)) [µM] | IC50 [1] [µM] | IC50 [2] [µM] |
| --- | --- | --- | --- |
| COc1cnc(C(=O)Nc2ccc(F)c([C@]3(C)CS(=O)(=O)[C@@](C)(F)C(N)=N3)c2)cn1 [Example 30, N-(3-((3R,6R)-5-amino-6-fluoro-3,6-dimethyl-1,1-dioxido-3,6-dihydro-2H-1,4-thiazin-3-yl)-4-fluorophenyl)-5-methoxy-2-pyrazinecarboxamide] | > 400 | 0.0801 | 0.0031 |
| COc1cnc(C(=O)Nc2ccc(F)c(C3(CF)CS(=O)(=O)C(C)(C)C(N)=N3)c2)cn1 (stereo not drawn) [Example 31, N-(3-(-5-amino-3-(fluoromethyl)-6,6-dimethyl-1,1-dioxido-3,6-dihydro-2H-1,4-thiazin-3-yl)-4-fluorophenyl)-5-methoxy-2-pyrazinecarboxamide] | > 400 | 0.0279 | 0.0038 |
| COc1cnc(C(=O)Nc2ccc(F)c(C3(C(F)F)CS(=O)(=O)C(C)(C)C(N)=N3)c2)cn1 (stereo not drawn) [Example 32, N-(3-(-5-amino-3-(difluoromethyl)-6,6-dimethyl-1,1-dioxido-3,6-dihydro-2H-1,4-thiazin-3-yl)-4-fluorophenyl)-5-methoxy-2-pyrazinecarboxamide] | > 400 | 1.42 | 0.0531 |
| CC1(c2cc(NC(=O)c3ccc(Cl)cn3)cc(F)c2F)CS(=O)(=O)C(C)(C)C(N)=N1 (stereo not drawn) [Example 35, N-(3-(-5-amino-3,6,6-trimethyl-1,1-dioxido-3,6-dihydro-2H-1,4-thiazin-3-yl)-4,5-difluorophenyl)-5-chloro-2-pyridinecarboxamide] | 99.8 | 0.0122 | 0.0027 |
| COc1cnc(C(=O)Nc2ccc(F)c([C@]3(C(F)F)CS(=O)(=O)C(C)(C)C(N)=N3)c2)cn1 [Example 36, (S)—N-(3-(5-amino-3-(difluoromethyl)-6,6-dimethyl-1,1-dioxido-3,6-dihydro-2H-1,4-thiazin-3-yl)-4-fluorophenyl)-5-methoxypyrazine-2-carboxamide] | > 400 | 0.765 | 0.0202 |
| CC1(C)C(N)=N[C@](C)(c2cc(NC(=O)c3ccc(Cl)cn3)cc(F)c2F)CS1(=O)=O [Example 38, (R)—N-(3-(5-amino-3,6,6-trimethyl-1,1-dioxido-3,6-dihydro-2H-1,4-thiazin-3-yl)-4,5-difluorophenyl)-5-chloropicolinamide] | 72.8 | 0.0065 | 0.001 |
| CC1(C)C(N)=N[C@@](C)(c2cc(NC(=O)c3ccc(Cl)cn3)cc(F)c2F)CS1(=O)=O [Example 39, (S)—N-(3-(5-amino-3,6,6-trimethyl-1,1-dioxido-3,6-dihydro-2H-1,4-thiazin-3-yl)-4,5-difluorophenyl)-5-chloropicolinamide] | 225 | 3.27 | 1.18 |
| COc1cnc(C(=O)Nc2ccc(F)c([C@]3(C)CS(=O)(=O)C(C)(C)C(N)=N3)n2)cn1 [Example 40, (R)—N-(6-(5-amino-3,6,6-trimethyl-1,1-dioxido-3,6-dihydro-2H-1,4-thiazin-3-yl)-5-fluoropyridin-2-yl)-5-methoxypyrazine-2-carboxamide] | > 400 | 6.98 | 8.2 |
| COc1cnc(C(=O)Nc2cc(C3(C)CS(=O)(=O)C(C)(C)C(N)=N3)c(F)cn2)cn1 (stereo not drawn) [Example 41, N-(4-(5-amino-3,6,6-trimethyl-1,1-dioxido-3,6-dihydro-2H-1,4-thiazin-3-yl)-5-fluoropyridin-2-yl)-5-methoxypyrazine-2-carboxamide] | 333 | 0.935 | 0.252 |
| COc1cnc2c(Nc3ccc(F)c([C@@]4(C)N=C(N)C(C)(C)S(=O)(=O)[C@@H]4F)c3)nccc2c1 [Example 44, (2S,3R)-5-Amino-2-fluoro-3-(2-fluoro-5-((3-methoxy-1,7-naphthyridin-8-yl)amino)phenyl)-3,6,6-trimethyl-3,6-dihydro-2H-1,4-thiazine 1,1-dioxide] | 357 | 0.0604 | 0.0099 |
| CC1(C)C(N)=N[C@](C)(c2cc(Nc3nccc4cc(Cl)cnc34)ccc2F)CS1(=O)=O [Example 45, N-(3-((3R)-5-amino-3,6,6-trimethyl-1,1-dioxido-3,6-dihydro-2H-1,4-thiazin-3-yl)-4-fluorophenyl)-3-chloro-1,7-naphthyridin-8-amine] | 90.4 | 0.0075 | 0.00059 |
| COc1cnc2c(Nc3ccc(F)c([C@]4(C)CS(=O)(=O)C(C)(C)C(N)=N4)c3)nccc2c1 [Example 46, N-(3-((3R)-5-amino-3,6,6-trimethyl-1,1-dioxido-3,6-dihydro-2H-1,4-thiazin-3-yl)-4-fluorophenyl)-3-methoxy-1,7-naphthyridin-8-amine] | 397 | 0.004 | 0.0054 |
| COc1cnc2c(Nc3ccc(F)c([C@]4(C)CS(=O)(=O)C(C)(C)C(N)=N4)c3)nccc2n1 [Example 47, N-(3-((3R)-5-amino-3,6,6-trimethyl-1,1-dioxido-3,6-dihydro-2H-1,4-thiazin-3-yl)-4-fluorophenyl)-2-methoxypyrido[3,4-b]pyrazin-5-amine] | > 400 | 0.0056 | 0.0029 |
| CC1(C)C(N)=N[C@](C)(c2cc(Nc3nccc4cc(C#N)cnc34)ccc2F)CS1(=O)=O [Example 48, 8-((3-((3R)-5-amino-3,6,6-trimethyl-1,1-dioxido-3,6-dihydro-2H-1,4-thiazin-3-yl)-4-fluorophenyl)amino)-1,7-naphthyridine-3-carbonitrile] | 66.7 | 0.0019 | 0.00054 |
| CC1(C)C(N)=N[C@](C)(c2cc(Nc3ncc(F)c4cc(Cl)cnc34)ccc2F)CS1(=O)=O [Example 49, N-(3-((3R)-5-amino-3,6,6-trimethyl-1,1-dioxido-3,6-dihydro-2H-1,4-thiazin-3-yl)-4-fluorophenyl)-3-chloro-5-fluoro-1,7-naphthyridin-8-amine] | 27.1 | 0.0151 | 0.00056 |
| COc1cnc2c(Nc3ccc(F)c([C@]4(C)CS(=O)(=O)C(C)(C)C(N)=N4)c3)ncc(F)c2c1 [Example 50, N-(3-((3R)-5-amino-3,6,6-trimethyl-1,1-dioxido-3,6-dihydro-2H-1,4-thiazin-3-yl)-4-fluorophenyl)-5-fluoro-3-methoxy-1,7-naphthyridin-8-amine] | 73.3 | 0.0053 | 0.002 |
| COc1cnc2c(Nc3ccc(F)c([C@]4(C)CS(=O)(=O)C(C)(C)C(N)=N4)c3)ncnc2c1 [Example 51, N-(3-((3R)-5-amino-3,6,6-trimethyl-1,1-dioxido-3,6-dihydro-2H-1,4-thiazin-3-yl)-4-fluorophenyl)-7-methoxypyrido[3,2-d]pyrimidin-4-amine] | 81 | 0.003 | 0.0027 |
| CC1(C)C(N)=N[C@](C)(c2cc(Nc3ncnc4cc(Cl)cnc34)ccc2F)CS1(=O)=O [Example 52, N-(3-((3R)-5-amino-3,6,6-trimethyl-1,1-dioxido-3,6-dihydro-2H-1,4-thiazin-3-yl)-4-fluorophenyl)-7-chloropyrido[3,2-d]pyrimidin-4-amine] | 36 | 0.0023 | 0.002 |
